The source of these data is ChEMBL document CHEMBL3865781, “Recent advances in the discovery and development of antibacterial agents targeting the cell-division protein FtsZ” (Bioorg Med Chem, 2016).

Series [1] concerns Mycobacterium tuberculosis. The series is described as follows: In vivo antibacterial activity against Mycobacterium tuberculosis H37Rv infected in GKO-TB mouse assessed as reduction in bacterial load in lungs at 50 mg/kg, ip or po bid for 10 consecutive days. It counts as functional.
Series [2] has as its system Mycobacterium tuberculosis. Kind of series: Antibacterial activity against Mycobacterium tuberculosis TN587 clinical isolates measured every 24 hrs for 7 days by MABA assay. The series is classed as functional.
In series [3] the test system is Mycobacterium tuberculosis. Kind of series: Antibacterial activity against Mycobacterium tuberculosis NHN382 clinical isolates measured every 24 hrs for 7 days by MABA assay. The series is classed as functional.
Series [4] concerns Mycobacterium tuberculosis. The series is described as follows: Antibacterial activity against Mycobacterium tuberculosis W210 clinical isolates measured every 24 hrs for 7 days by MABA assay. The series is classed as functional.
The subject of series [5] is Mycobacterium tuberculosis. Kind of series: Antibacterial activity against Mycobacterium tuberculosis NHN20 clinical isolates measured every 24 hrs for 7 days by MABA assay. It counts as functional.
Series [6] deals with Mycobacterium tuberculosis. Kind of series: Antibacterial activity against Mycobacterium tuberculosis H37Rv measured every 24 hrs for 7 days by MABA assay. The series is classed as functional.
The test system of series [7] is Bacillus subtilis. The series is described as follows: Antibacterial activity against Bacillus subtilis after 4 hrs. The series is classed as functional.
Series [8] relates to Mycolicibacterium smegmatis. The series is described as follows: Antibacterial activity against Mycobacterium smegmatis after 4 hrs. The series is classed as functional.
Series [9] has as its system Mycobacterium tuberculosis. The series is described as follows: In vivo antibacterial activity against Mycobacterium tuberculosis H37Rv infected in C57BL/6 GKO-mouse assessed as reduction in bacterial load in lungs at 150 mg/kg, ip qd on day 12 post infection for 9 consecutive days. The series is classed as functional.
In series [10] the test system is Mycobacterium tuberculosis. The series is described as follows: In vivo antibacterial activity against Mycobacterium tuberculosis H37Rv infected in C57BL/6 GKO-mouse assessed as reduction in bacterial load in spleens at 150 mg/kg, ip qd on day 12 post infection for 9 consecutive days. The series is classed as functional.
The subject of series [11] is Staphylococcus aureus. Kind of series: In vivo antibacterial activity against methicillin-resistant Staphylococcus aureus ATCC 33591 infected in ICR(CD-1) mouse thigh infection model assessed as reduction in colony forming units in thigh muscle at 120 to 160 mg/kg, po measured 24 hrs post infection. The series is classed as functional.
Series [12] relates to Bacillus subtilis. The series is described as follows: Antibacterial activity against Bacillus subtilis 168 after 12 hrs by agar dilution assay. The series is classed as functional. Conditions: subsp. subtilis str. 168, 12 h.
In series [13] the test system is Mycolicibacterium smegmatis. The series is described as follows: Antibacterial activity against Mycobacterium smegmatis after 12 hrs by agar dilution assay. The series is classed as functional.
Series [14] relates to Staphylococcus aureus. Kind of series: Antibacterial activity against methicillin-resistant Staphylococcus aureus after 16 to 24 hrs by microdilution method. It counts as functional.
Series [15] has as its system Staphylococcus aureus. The series is described as follows: Antibacterial activity against vancomycin-intermediate Staphylococcus aureus isolates after 16 to 24 hrs by microdilution method. The series is classed as functional.
The subject of series [16] is Staphylococcus aureus. Kind of series: Antibacterial activity against methicillin-sensitive Staphylococcus aureus after 16 to 24 hrs by microdilution method. The series is classed as functional.
The subject of series [17] is Staphylococcus aureus. Kind of series: Antibacterial activity against vancomycin-resistant Staphylococcus aureus isolates after 16 to 24 hrs by microdilution method. It counts as functional.
Series [18] relates to Staphylococcus aureus. The series is described as follows: Antibacterial activity against linezolid-nonsusceptible Staphylococcus aureus isolates after 16 to 24 hrs by microdilution method. The series is classed as functional.
Series [19] can be described thus: Half life in iv dosed BALB/c mouse administered 1 hr after ABT addition by LC-MS/MS analysis. It counts as ADME, organism-based. Conditions: in vivo.
Series [20] deals with Staphylococcus aureus. The series is described as follows: Antibacterial activity against Daptomycin-nonsusceptible Staphylococcus aureus isolates after 16 to 24 hrs by microdilution method. It counts as functional.
In series [21] the test system is Mycobacterium tuberculosis. Kind of series: In vivo antibacterial activity against Mycobacterium tuberculosis str. Erdman infected in C57BL/6 mouse assessed as reduction in bacterial load in spleens at 50 mg/kg, ip bid on day 5 to 14 post infection measured on day 15 post infection. It counts as functional, Erdman = ATCC 35801.
The subject of series [22] is Priestia megaterium. The series is described as follows: Antibacterial against Bacillus megaterium. The series is classed as functional.
Series [23] deals with Salmonella typhimurium. The series is described as follows: Antibacterial activity against Salmonella typhimurium. It counts as functional, Salmonella enterica subsp. enterica serovar Typhimurium. Conditions: Salmonella enterica.
In series [24] the test system is Staphylococcus aureus. Kind of series: Antibacterial against methicillin-resistant Staphylococcus aureus. The series is classed as functional.
In series [25] the test system is Escherichia coli. The series is described as follows: Antibacterial activity against Escherichia coli. The series is classed as functional.

≈ marks a conversion by molar mass, not a printed value.

For the compound `CN(C)c1cc2[nH]c(C3CCCCC3)nc2cc1NC(=O)c1ccc(OC(F)(F)F)c(F)c1F`, in series [1], the Activity is given as 2.5 - 3.4 log10CFU. Also, the MIC99 in [2] was 0.31 µg/mL (≈ 0.643 µM); in series [3], 0.37 µg/mL (≈ 0.767 µM); in series [4] it was 0.47 µg/mL (≈ 0.974 µM); in series [5], 0.39 µg/mL (≈ 0.808 µM); in series [6], 0.39 µg/mL (≈ 0.808 µM).
Take `CCC(C)c1ccc(NC(=O)c2cccc3[nH]c(-c4cccs4)nc23)cc1` (stereo not drawn): the values for the IC50 in series [7] and in series [8] were 1000 nM and 1600 nM, respectively.
Take `CCCCOC(=O)Nc1cc2nc(C3CCCCC3)[nH]c2cc1N(CC)CC`: the Activity in series [9] was found to be 0.41 log10CFU; in series [10], 0.7 log10CFU. Further, the MIC99 in [2] was 1.25 µg/mL (≈ 3.23 µM); in series [3], 1.25 µg/mL (≈ 3.23 µM); in series [4] it was 1.25 µg/mL (≈ 3.23 µM); in series [6], 0.63 µg/mL (≈ 1.63 µM).
With `CN1CCC(C(=O)NC(=O)c2c(F)ccc(OCc3nc4cc(C(F)(F)F)cnc4s3)c2F)CC1`, in series [11], the Activity turned out to be 2 log10CFU.
Regarding `CC(=O)O[C@@]12CO[C@@H]1C[C@H](O)[C@@]1(C)C(=O)C(=O)C3=C(C)[C@@H](OC(=O)/C=C/c4ccc5ccccc5c4)C[C@@](O)([C@@H](OC(=O)c4ccccc4)[C@H]21)C3(C)C`, the figures for the MIC in [12] and in [13] were 30 µM (≈ 21.7 µg/mL) and 60 µM (≈ 43.4 µg/mL), respectively.
For the compound `NC(=O)c1c(F)ccc(OCc2nc3cc(C(F)(F)F)cnc3s2)c1F`, the MIC in series [14], in [15], in [16], in series [17], in series [18] and in series [20] was 1 µg/mL (≈ 2.57 µM) in each case. In addition, in [19], the half-life is 3.65 h.
Regarding `CN(C)c1cc2[nH]c(C3CCCCC3)nc2cc1NC(=O)c1ccc(OC(F)(F)F)cc1`, the MIC99 in [2], in series [3], in [4] and in [6] was 0.16 µg/mL (≈ 0.358 µM) throughout. Besides, the Activity in [21] is 2.68 log10CFU.
H-GLLRKGGEKIGEKLKKIGQKIKNFFQKLVPQPEQ-OH: the MIC in [22], in series [23], in series [24] and in series [25] was 0.5 to 64 µM each time.
